Assay results as given in patent US8507756B2, “Plant protection” (Plant Bioscience Limited, priority 2007, dated 2013).

System: Myzus persicae
Assay: JA or MeJA seed treatment, tomato plants challenged with aphids
Type: in vivo
Settings: tomato cv. Carousel; seed treatment 3.0 mM MeJA; challenged 10 weeks after seed treatment; 12 days feeding
Procedure: Tomato, pepper, maize and wheat seeds were treated with 3 mM JA or 1.5 mM JA solutions or with 3 mM methyl jasmonate (MeJA) or with deionised water containing 42.8 mM ethanol (control) by full submersion of up to 40 seeds in a Petri dish of solution wrapped in foil for a period of 24 hours at 4° C. in a fridge. A temperature of 4° C. was used both to prevent degradation of the jasmonic acid solutions and to prevent germination of the seeds. The seeds were then removed from the treatment solution and washed in 1 liter of deionised water for 5 minutes to remove the JA or MeJA coating the outside of the seeds. Tomato seeds were sown in rockwool blocks and grown on peat-based compost in glass houses at 12° C.-28° C. under artificial light on a 16 hour light and 8 hour dark cycle for 48, 56 or 70 days. Tomato plants were then challenged with Tetranychus urticae (two-spotted spider mite) which were allowed to feed for 9 days, Manduca sexta (tobacco hornworm) caterpillars which were allowed to feed for 4 days or Myzus persicae (aphid), which were allowed to feed for 10 or 12 days. In each case these organisms were restricted to the plant on which they had originally been placed. Pepper plants were challenged with Myzus persicae (aphid), which were allowed to feed for 2 weeks. Maize and wheat plants were challenged with Spodoptera […] caterpillars which were allowed to feed for 2 days (maize) or 3 days (wheat). The effect of Myzus persicae on plants was determined by counting the aphid population on each plant under a dissecting microscope at ×10 magnification. Seeds of a UK commercial F1 hybrid tomato variety (cv. Carousel) were treated with 3.0 mM jasmonic acid (JA) and 42.8 mM ethanol in deionised H2O for a period of 24 hours at 4° C. in the dark. […] Aphids were allowed to feed on the plants for twelve days and the aphid population was measured at intervals over this period. […]

CC/C=C\CC1C(=O)CCC1CC(=O)OC (stereo not shown) [MeJA, jasmonic acid methyl ester]
Aphid population compared with control plants: significant (p<0.05) reduction
